Data reported in PMC10199020 (Nature Communications, 2023).
Bridge positions count the residues as written; N and C are the ends. Square brackets hold non-standard residues; d marks the D form. Peptide text beside a SMILES is read from it. * marks the point of attachment. 5TAMRA = CN(C)c1ccc2c(c1)Oc1cc(N(C)C)ccc1C21OC(=O)c2cc(C(=O)*)ccc21; 2Nal = N[C@@H](Cc1ccc2ccccc2c1)C(=O)O; Pen = CC(C)(S)[C@H](N)C(=O)O; Aib = CC(C)(N)C(=O)O

Molecular target: T1, NL-IL23R (Homo sapiens, UniProt Q5VWK5)
T1 construct: expressed in transfected cells; host or cells: HEK293T, transient transfection
T1 sequence (Q5VWK5 24-629): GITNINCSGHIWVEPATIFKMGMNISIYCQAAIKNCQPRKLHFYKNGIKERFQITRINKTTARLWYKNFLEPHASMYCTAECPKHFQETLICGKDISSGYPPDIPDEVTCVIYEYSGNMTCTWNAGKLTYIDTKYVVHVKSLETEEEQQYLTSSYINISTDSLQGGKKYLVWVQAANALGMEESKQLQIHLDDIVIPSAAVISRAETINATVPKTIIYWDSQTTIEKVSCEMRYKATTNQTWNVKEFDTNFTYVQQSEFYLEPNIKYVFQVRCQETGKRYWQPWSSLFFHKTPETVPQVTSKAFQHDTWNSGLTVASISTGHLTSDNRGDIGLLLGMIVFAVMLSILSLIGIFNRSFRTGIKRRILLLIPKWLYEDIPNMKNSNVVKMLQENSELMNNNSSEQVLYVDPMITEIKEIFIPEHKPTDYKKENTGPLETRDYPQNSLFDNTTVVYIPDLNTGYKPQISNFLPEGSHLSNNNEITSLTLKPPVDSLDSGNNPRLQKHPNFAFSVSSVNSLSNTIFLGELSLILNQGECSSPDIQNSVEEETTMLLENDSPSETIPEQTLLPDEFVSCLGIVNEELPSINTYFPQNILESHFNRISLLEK
Assay: P630-TMR NanoBRET binding assay, NL-IL23R alone
Details: for BRET ratio, Specific (Mean) / BRET ratio, Non-specific (Mean): Fig. 2c; for BRET ratio, Non-specific (Mean): with 10 μM P630; for BRET ratio with non-specific binding subtracted (Mean): Figure 2 sheet Panel f; for BRET ratio with non-specific binding subtracted (Mean) / % maximum BRET ratio / % of P630-TMR specific Bmax (Mean): NL-IL23R; for % maximum BRET ratio / % of P630-TMR specific Bmax (Mean): Figure 2 sheet Panel g, Fig. 3d
From the text: A standard curve was used to predict the expression level of NanoLuc labelled receptor in each experiment (Supplementary Fig. 1).
Fig. 2 Creation and characterisation of a fluorescent cyclic peptide probe for IL23R. […] Data are normally mean ± SEM from five independent experiments. Details on absolute number of data points included for each concentration are provided in the associated Source Data file. In each individual saturation experiment triplicate determinations were normally made for total binding and duplicate measurements were made for non-specific binding.
Media was removed from white 96-well microplates containing transfected cells and replaced with fluoroprobe in the presence or absence of antagonist in 50 μL Hanks Balanced Salt Solution (HBSS) with 1 mg/mL BSA (Merck). After a 1-hour incubation at 37 °C without CO2, 5 μL of HBSS containing 77 μM furimizine was added to each well (final concentration 7 μM), the plate incubated for 5-minutes and the BRET signal measured using a PheraStar FS plate reader (BMG Labtech; data acquisition software version 5.41; MARS analysis software version 3.32) with a 450 ± 30 nm and >550 nm long pass filters.
Ligand binding data were fitted with the equation:2 BRETratio=Bmax[A]/([A]+KD)+(BA+C). Where ‘Bmax’ is the maximum specific binding BRET signal, ‘[A]’ is fluorescent probe concentration, ‘B’ is the non-specific binding component’s slope and ‘C’ is the Y intercept.
Specific binding data was generated by subtracting the BRET values gained in the presence of an excess of unlabelled probe from the BRET ratios gained in the absence of unlabelled probe. Specific binding data were fit using the equation:3 Y=Bmax[B]/(B+KD) where ‘Bmax’ is the maximum specific binding signal of the curve and ‘[B]’ is the concentration of fluorescent probe.

[1] = NL-IL23R alone, P630-TMR 0.457247 nM
[2] = NL-IL23R alone, P630-TMR 1.37174 nM
[3] = NL-IL23R alone, P630-TMR 4.11523 nM
[4] = NL-IL23R alone, P630-TMR 12.3457 nM
[5] = NL-IL23R alone, P630-TMR 37.037 nM
[6] = NL-IL23R alone, P630-TMR 111.111 nM
[7] = NL-IL23R alone, P630-TMR 1000 nM
[8] = NL-IL23R alone, P630-TMR 3000 nM

Structure (SMILES): COc1ccc(C[C@H](NC(=O)[C@H]2NC(=O)[C@H](CCC(N)=O)NC(=O)[C@H](Cc3c[nH]c4ccccc34)NC(=O)[C@H]([C@@H](C)O)NC(=O)[C@H](CC(N)=O)NC(=O)[C@@H](NC(C)=O)C(C)(C)SSC2(C)C)C(=O)N[C@@H](Cc2ccc3ccccc3c2)C(=O)NC(C)(C)C(=O)N[C@@H](CCC(=O)O)C(=O)N[C@@H](CC(N)=O)C(=O)N[C@@H](CC(N)=O)C(=O)N[C@@H](CCCCNC(=O)c2ccc3c(c2)C(=O)OC32c3ccc(N(C)C)cc3Oc3cc(N(C)C)ccc32)C(N)=O)cc1 [P630-TMR] (Ac-[Pen]NTWQ[Pen]Y(Me)[2Nal][Aib]ENNK(5TAMRA)-NH2; disulfide 1-6)
- BRET ratio, Specific (Mean) [1]: 0.2582
- BRET ratio, Specific (Mean) [2]: 0.3055
- BRET ratio, Specific (Mean) [3]: 0.425
- BRET ratio, Specific (Mean) [4]: 0.7682
- BRET ratio, Specific (Mean) [5]: 1.473
- BRET ratio, Specific (Mean) [6]: 2.644
- BRET ratio, Specific (Mean) [7]: 4.095
- BRET ratio, Specific (Mean) [8]: 5.137
- BRET ratio, Non-specific (Mean) [1]: 0.2458
- BRET ratio, Non-specific (Mean) [2]: 0.2417
- BRET ratio, Non-specific (Mean) [3]: 0.2509
- BRET ratio, Non-specific (Mean) [4]: 0.245
- BRET ratio, Non-specific (Mean) [5]: 0.2505
- BRET ratio, Non-specific (Mean) [6]: 0.2646
- BRET ratio, Non-specific (Mean) [7]: 0.4272
- BRET ratio, Non-specific (Mean) [8]: 0.8664
- BRET ratio, Non-specific (Mean) (NL-IL23R alone, P630-TMR […]): 0.2988
- BRET ratio with non-specific binding subtracted (Mean) (P630-TMR 0.457247 nM): 0.01938
- BRET ratio with non-specific binding subtracted (Mean) (P630-TMR 1.37174 nM): 0.8164
- BRET ratio with non-specific binding subtracted (Mean) (P630-TMR 4.11523 nM): 2.963
- BRET ratio with non-specific binding subtracted (Mean) (P630-TMR 12.3457 nM): 2.778
- BRET ratio with non-specific binding subtracted (Mean) (P630-TMR 37.037 nM): 2.936
- BRET ratio with non-specific binding subtracted (Mean) (P630-TMR 111.111 nM): 9.572
- BRET ratio with non-specific binding subtracted (Mean) (P630-TMR 1000 nM): 15.1461
- BRET ratio with non-specific binding subtracted (Mean) (P630-TMR 3000 nM): 19.8619
- % maximum BRET ratio / % of P630-TMR specific Bmax (Mean) (P630-TMR 0.457247 nM): 0.5534%
- % maximum BRET ratio / % of P630-TMR specific Bmax (Mean) (P630-TMR 1.37174 nM): 1.759%
- % maximum BRET ratio / % of P630-TMR specific Bmax (Mean) (P630-TMR 4.11523 nM): 4.853%
- % maximum BRET ratio / % of P630-TMR specific Bmax (Mean) (P630-TMR 12.3457 nM): 14.5245%
- % maximum BRET ratio / % of P630-TMR specific Bmax (Mean) (P630-TMR 37.037 nM): 33.5672%
- % maximum BRET ratio / % of P630-TMR specific Bmax (Mean) (P630-TMR 111.111 nM): 64.3078%
- % maximum BRET ratio / % of P630-TMR specific Bmax (Mean) (P630-TMR 1000 nM): 100.336%
- % maximum BRET ratio / % of P630-TMR specific Bmax (Mean) (P630-TMR 3000 nM): 99.0015%
- Kd (NL-IL23R alone, mean ± SEM): 101 ± 4 nM
- Bmax, fold higher than NL-IL23R with IL12Rβ1 (NL-IL23R in isolation): 4.04 fold
